Assay results reported in PubChem BioAssay (NCI).
Where “and” joins values, the source holds several entries; their conditions need not be identical. Equal entries are not always repeated.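 Interpolation was linear, between the two tested concentrations surrounding the appropriate level; five concentrations were tested over 48 hours in 96-well plates. GI50: concentration for 50% inhibition of growth. TGI marks complete inhibition of growth.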

Legend:
Experiment in all cases: NCI-60 cell line screen, 48 h
786-0 renal = system: 786-0 renal
ACHN renal = system: ACHN renal
BT-549 breast = system: BT-549 breast
CCRF-CEM leukemia = system: CCRF-CEM leukemia
COLO 205 colon = system: COLO 205 colon
HS 578T breast = system: HS 578T breast
RPMI-8226 leukemia = system: RPMI-8226 leukemia
SF-295 CNS = system: SF-295 CNS
SNB-75 CNS = system: SNB-75 CNS
SR leukemia = system: SR leukemia

Structure (SMILES)	GI50 (786-0 renal)	TGI (786-0 renal)	GI50 (ACHN renal)	TGI (ACHN renal)	GI50 (BT-549 breast)	TGI (BT-549 breast)	GI50 (CCRF-CEM leukemia)	TGI (CCRF-CEM leukemia)	GI50 (COLO 205 colon)	TGI (COLO 205 colon)	GI50 (HS 578T breast)	TGI (HS 578T breast)	GI50 (RPMI-8226 leukemia)	TGI (RPMI-8226 leukemia)	GI50 (SF-295 CNS)	TGI (SF-295 CNS)	GI50 (SNB-75 CNS)	TGI (SNB-75 CNS)	GI50 (SR leukemia)	TGI (SR leukemia)
COc1ccc(C(O)(CCC(C)C)C(CN2CCOCC2)c2ccc(Cl)cc2)cc1 (stereo not drawn)	14 µM	28.6 µM	14400 nM	27.9 µM	14.9 µM	30 µM	13600 nM	34.8 µM	12.7 µM	30.9 µM	15.2 µM	40.4 µM	8760 nM	31.2 µM	13.4 µM	29.8 µM	13 µM	35.2 µM	10.4 µM	28.9 µM
O=C(CNS(=O)(=O)Cc1ccccc1)NNc1ccccc1	–	> 100 µM	–	> 100 µM	–	> 100 µM	–	> 100 µM	–	12.4 µM	–	> 100 µM	–	> 100 µM	–	> 100 µM	–	> 100 µM	–	> 100 µM
COc1ccccc1Nc1ncc(-c2ccccc2)o1	> 25 µM	> 25 µM	> 25000 nM	> 25 µM	> 25 µM	> 25 µM	> 25000 nM	> 25 µM	> 25 µM	> 25 µM	> 5.12 µM	> 25 µM	> 25000 nM	> 25 µM	> 25 µM	> 25 µM	> 25 µM	> 25 µM	> 25 µM	> 25 µM
C#Cc1nc(Nc2cc(C)[nH]n2)c2ccccc2n1	0.349 µM	1.13 µM	257 nM	1.71 µM	0.233 µM	0.475 µM	248 nM	1.31 µM	0.279 µM	0.674 µM	0.318 µM	> 46.2 µM	83.5 nM	0.46 µM	0.609 µM	2.26 µM	0.167 µM	0.513 µM	0.226 µM	0.79 µM
COc1cc(/C=C/C(=O)c2cccc(-n3cc(-c4ccc(Cl)cc4)[nH]c3=O)c2)ccc1O	2.54 µM	6.69 µM	2190 nM	4.95 µM	2.89 µM	10.9 µM	706 nM	4.42 µM	4.88 µM	16 µM	3.78 µM	26.9 µM	1330 nM	3.76 µM	8.08 µM	31.8 µM	2.36 µM	10.2 µM	11.8 µM	> 100 µM
CSc1nc(NC2OC(COC(C)=O)C(OC(C)=O)C(OC(C)=O)C2OC(C)=O)c(N=CC=Nc2c(NC3OC(COC(C)=O)C(OC(C)=O)C(OC(C)=O)C3OC(C)=O)nc(SC)n(C)c2=O)c(=O)n1C (stereo not drawn)	16.7 µM	50 µM and > 80.6 µM	27800 nM	50 µM and > 100 µM	37.5 µM	50 µM and > 100 µM	> 50000 nM	> 100 µM	> 50 µM	> 100 µM	13.2 µM	50 µM and 75.7 µM	–	> 100 µM	> 50 µM	> 50 µM and 98.8 µM	8.97 µM	25.4 µM and 24.3 µM	> 50 µM	> 100 µM
O=C1c2cc3c(cc2-c2c1c1cc(Cl)c(Cl)cc1c(=O)n2C[C@H](O)CO)OCO3	< 0.01 µM	0.187 µM	< 10 nM	0.0128 µM	< 0.01 µM	0.455 µM	< 10 nM	19.1 µM	< 0.01 µM	0.291 µM	0.291 µM	32.9 µM	< 10 nM	0.188 µM	< 0.01 µM	–	< 0.01 µM	0.0786 µM	< 0.01 µM	3.78 µM
CN(C)C(=S)Sc1ccc([N+](=O)[O-])cc1[N+](=O)[O-]	5.3 µM	16 µM	1670 nM	3.05 µM	3.22 µM	9.93 µM	406 nM	> 43.6 µM	0.8 µM	3.02 µM	9.95 µM	56.3 µM	1390 nM	6.79 µM	14.5 µM	29 µM	7.53 µM	20.5 µM	0.296 µM	16.8 µM
CCN(Cc1ccc(F)cc1)c1ccc(CO)c(Br)c1	5.85 µM	31.1 µM	10200 nM	42 µM	12.2 µM	29 µM	14600 nM	43.9 µM	0.966 µM	4.98 µM	13.5 µM	46.1 µM	646 nM	22.1 µM	0.148 µM	2.3 µM	6.28 µM	39.8 µM	17 µM	46.4 µM
COC(=O)C1=CN(CC2=CC(=O)C(C)=CC2=O)C=C(C(=O)OC)C1c1cccc(OC)c1	> 22.5 µM	> 41 µM	2780 nM	7.99 µM	8.61 µM	36.6 µM	2380 nM	> 21.9 µM	18.4 µM	> 66.6 µM	8.66 µM	44.9 µM	1950 nM	5.06 µM	10.3 µM	26.4 µM	31 µM	> 100 µM	4.74 µM	35 µM
